Test results published in patent US10744092B2, “Temperature-sensitive composite and method for preparing same” (KOREA UNIVERSITY RESEARCH AND BUSINESS FOUNDATION, SEJONG …, priority 2016, dated 2020).

Tests used:
[1] = Precipitation / stability and solubility of drug in composite aqueous solution; format: physicochemical; settings: drug not loaded in nanoparticles
Protocol: An aqueous solution was prepared by mixing 2 g of Pluronic F-127, 0.1 g of naproxen and 50 mg of sodium hyaluronate with 10 ml of distilled water, thereby preparing a polymer composite aqueous solution in which naproxen was dispersed.
An aqueous solution was prepared by mixing 1.6 g of Pluronic F-127, 0.4 g of Pluronic F-68, 50 mg of doxorubicin and 75 mg of docetaxel with 10 ml of distilled water, thereby preparing a polymer composite aqueous solution in which doxorubicin and docetaxel were dispersed.

[2] = Release pattern of drug from composite (dialysis bag in PBS pH 7.4, HPLC); format: physicochemical; settings: at body temperature (37° C.) versus room temperature; PBS pH 7.4, dialysis bag
Protocol: To confirm the release pattern of a drug from the temperature-sensitive composite in the present invention, an experiment was carried out as follows. 20 mg of each of the temperature-sensitive composites from Examples 1, 2 and 3, and the temperature-sensitive polymer composites from Comparative Examples 1, 2 and 3 was put into a dialysis bag (filtration molecular weight cut-off—100,000), and then immersed in 20 ml of a phosphate buffer solution (PBS, pH 7.4). The temperature was maintained at 25° C. and 37.5° C. with stirring at 600 rpm. At predetermined time, 5 ml of the phosphate buffer solution was withdrawn to measure an amount of the released drug through HPLC. After sampling, the remaining phosphate buffer solution was completely removed, and a fresh phosphate buffer solution was added.

| precipitation in the polymer composite [1] | release of the drug [2] | SMILES |
| --- | --- | --- |
| precipitated |  | CC(=O)O[C@@]12CO[C@@H]1C[C@H](O)[C@@]1(C)C(=O)[C@H](O)C3=C(C)[C@@H](OC(=O)[C@H](O)[C@@H](NC(=O)OC(C)(C)C)c4ccccc4)C[C@@](O)([C@@H](OC(=O)c4ccccc4)[C@H]21)C3(C)C [docetaxel] |
| precipitated |  | COc1ccc2cc([C@H](C)C(=O)O)ccc2c1 [naproxen] |
|  | decreased | CCCCN1CCCCC1C(=O)Nc1c(C)cccc1C (stereo not shown) [bupivacaine] |
|  | decreased | COc1cccc2c1C(=O)c1c(O)c3c(c(O)c1C2=O)C[C@@](O)(C(=O)CO)C[C@@H]3O[C@H]1C[C@H](N)[C@H](O)[C@H](C)O1 [doxorubicin] |
